Measurements reported in PubChem BioAssay (NCI).
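Cells were grown in 96-well plates and exposed to each compound for 48 hours at five concentrations; endpoints were interpolated linearly between bracketing concentrations, or set to the highest concentration if not reached. GI50 = concentration required for 50% inhibition of growth. TGI: concentration producing complete growth inhibition.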

What was measured:
Assay in all cases: inhibition of tumour cell growth, NCI panel, 48 h
[1] = system: NCI-H226 lung
[2] = system: SF-268 CNS
[3] = system: HOP-92 NSCLC
[4] = system: MDA-MB-231 breast
[5] = system: IGROV1 ovarian
[6] = system: OVCAR-3 ovarian
[7] = system: UO-31 renal
[8] = system: OVCAR-8 ovarian
[9] = system: OVCAR-5 ovarian
[10] = system: CAKI-1 renal

Structure (SMILES)	GI50 [1] [µM]	TGI [1] [µM]	GI50 [2] [µM]	TGI [2] [µM]	GI50 [3] [µM]	TGI [3] [µM]	GI50 [4] [µM]	TGI [4] [µM]	GI50 [5] [µM]	TGI [5] [µM]	GI50 [6] [µM]	TGI [6] [µM]	GI50 [7] [µM]	TGI [7] [µM]	GI50 [8] [µM]	TGI [8] [µM]	GI50 [9] [µM]	TGI [9] [µM]	GI50 [10] [µM]	TGI [10] [µM]
O=c1cc(-c2ccccc2)oc2cc(OC/C(=N/O)c3ccc(F)cc3)ccc12	27.6	> 50	19.7	> 50	28.6	> 50	16.3	> 50	19.6	> 50	11.4	35.6	14.7	> 50	32.2	> 50	> 50	> 50	11.8	38.6
Cn1c(=S)c2[nH]c(SCCN3C(=O)c4ccccc4C3=O)nc2n(C)c1=O	–	> 100	–	> 100	–	> 100	–	> 100	–	> 100	–	> 100	–	> 100	–	> 100	–	> 100	–	> 100
NC(=S)N=Nc1c(O)c2ccccc2c2ccccc12	21.3	70.1	10.2	35.7	18.4	51.6	16.1	60.2	27.2	> 100	3.02	10.2	3.26	> 76.1	4.32	22.7	2.45	6.94	37.9	> 100
Clc1ccccc1C(Nc1ncccn1)Nc1ncccn1	–	> 100	–	> 100	–	> 100	–	> 100	–	> 100	–	> 100	–	> 100	–	> 100	–	> 100	–	> 100
Nc1nc(=O)n([C@@H]2CS[C@H](CO)O2)cc1F	> 100	> 100	> 100	> 100	> 100	> 100	> 100	> 100	> 100	> 100	> 100	> 100	> 100	> 100	> 100	> 100	> 100	> 100	> 100	> 100
COc1cc(-n2ccnc2)cc(OC)c1OC	36.2	> 100	37.9	> 100	72.6	> 100	79	> 100	11.1	51.6	51.6	> 100	21.4	> 100	56.8	> 100	> 100	> 100	26.7	55.8
COc1ccc(/C=C\c2cc(OC)c(OC)c(OC)c2)cc1OCC(=O)Nc1ccc2nc(C)sc2c1	2.75	12	3.61	36.1	2.38	7.62	5.45	> 100	3.72	15.7	6.32	69.2	2.41	7.5	2.12	5.41	6.69	> 100	2.19	5.85
CCOC(=O)/C=C/C(=O)[C@H](CC(C)C)NC(=O)[C@H](Cc1ccccc1)NC(=O)OCc1ccccc1	26.4	60.4	3.3	13.3	2.56	6.99	2.92	6.35	2.32	4.89	3.19	10.4	1.78	3.66	18.4	60.4	14.3	31.1	8.82	21.7
Cc1ccc(NCCN(C)C)c2c(=O)c3ccccc3sc12	1.83	3.96	1.97	4.74	1.04	4.41	1.69	3.73	1.5	5.05	1.86	3.73	1.28	2.85	3.16	12.4	1.76	3.38	2.08	7.56
COc1ccc(N(/C=C/C(=O)C(F)(F)F)CC(=O)c2ccc(Cl)cc2)cc1	16.5	31.6	16.3	34.9	15.9	41.4	10.4	24.4	6.14	21.7	12.8	36.2	13.4	28.6	13.5	40	18.5	38.5	9.88	29.6
C#COc1cccc(Nc2ncnc3cc(NC(=O)[C@H](C)Cl)ccc23)c1	24.6	> 62.5	4.3	> 62.5	> 62.5	> 62.5	3.75	> 62.5	2.35	> 62.5	2.17	> 62.5	7.94	> 62.5	4.5	> 62.5	3.84	> 62.5	2.95	> 62.5
N#Cc1c(N)nc(NCc2ccccc2)c(C#N)c1-c1ccc(Cl)cc1Cl	> 100	> 100	–	1.18	1.12	> 100	> 100	> 100	40.5	> 100	> 64.2	> 100	> 100	> 100	> 67	> 100	96.9	> 100	> 100	> 100
COc1cc(/C=C/c2cc(/C=C/c3ccc(O)c(OC)c3)n(C(=O)Nc3ccc(Cl)cc3)n2)ccc1O	2.16	7.92	0.58	4.2	2.14	7.04	0.975	10.7	0.661	4.66	0.329	1.07	0.375	3.16	0.641	3.31	2.47	7.52	0.401	36.6
